Biological target: T1, human Orexin-2 receptor (Homo sapiens, UniProt O43614)
T1 construct: expressed in transfected cells; host or cells: HEK293 cells (transient transfection, Genejuice); membranes
T1 sequence (O43614 1-444): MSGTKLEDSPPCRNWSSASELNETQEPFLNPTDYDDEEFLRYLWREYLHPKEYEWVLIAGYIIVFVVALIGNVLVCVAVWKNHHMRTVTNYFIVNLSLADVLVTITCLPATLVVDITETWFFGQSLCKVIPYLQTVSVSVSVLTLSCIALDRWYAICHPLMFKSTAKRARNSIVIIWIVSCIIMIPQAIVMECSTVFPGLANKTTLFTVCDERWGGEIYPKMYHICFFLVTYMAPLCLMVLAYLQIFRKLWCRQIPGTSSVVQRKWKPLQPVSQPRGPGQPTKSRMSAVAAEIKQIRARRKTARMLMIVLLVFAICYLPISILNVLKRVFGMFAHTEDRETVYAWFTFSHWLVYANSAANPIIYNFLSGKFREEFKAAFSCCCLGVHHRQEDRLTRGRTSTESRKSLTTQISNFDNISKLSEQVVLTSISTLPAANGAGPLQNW
Assay: 3H-EMPA radioligand binding assay
Details: 3H-EMPA displacement, membranes of HEK293 cells transfected with human Orexin-2 receptor; KI by Cheng-Prussoff; read-out: OX2 pKi ave (converted)
Experimental: cDNA encoding the human Orexin-2 receptor was transfected into HEK293 cells using the transfection reagent Genejuice (Novagen). Forty-eight hours after transfection, cells were harvested and washed twice with ice cold phosphate-buffered saline. The pellet was resuspended in ice-cold buffer containing 20 mM Tris-HCl, pH 7.4, 1 mM EDTA and homogenised with an Ultraturax for 30 s at maximum speed. After centrifugation at 48,000 g for 30 min at 4° C., the pellet was resuspended and spun again. The final pellet was resuspended and frozen at −80° C. before use. Protein concentration was determined using the BCA protein assay method.
^3H-EMPA Radioligand Binding Assay
At the end of the incubation, membranes were filtered onto a unifilter, a 96-well white microplate with bonded GF/B filter pre-incubated with 0.5% polyethylenimine, with a Tomtec cell harvester and washed 4 times with distilled water. […] Radioactivity on the filter was counted (1 min) on a microbeta counter after addition of 50 µL of scintillation fluid. […] IC50 values were derived from the inhibition curve and the equilibrium dissociation constant (KI) values were calculated using the Cheng-Prussoff equation.

Row | SMILES | Ki [nM]
1 | CC(C)c1ccc(N2C(=O)N(Cc3c(F)cccc3Cl)c3ccccc3S2(=O)=O)cc1 [Example 48, 4-(2-chloro-6-fluorobenzyl)-2-[4-(propan-2-yl)phenyl]-2H-1,2,4-benzothiadiazin-3(4H)-one 1,1-dioxide] | 3.72
2 | CSc1cccc(N2C(=O)N(Cc3c(F)cccc3Cl)c3ccccc3S2(=O)=O)c1 [Example 49, 4-(2-chloro-6-fluorobenzyl)-2-[3-(methylsulfanyl)phenyl]-2H-1,2,4-benzothiadiazin-3(4H)-one 1,1-dioxide] | 1.05
3 | CSc1cccc(N2C(=O)N(Cc3ccc(F)cc3Cl)c3ccccc3S2(=O)=O)c1 [Example 50, 4-(2-chloro-4-fluorobenzyl)-2-[3-(methylsulfanyl)phenyl]-2H-1,2,4-benzothiadiazin-3(4H)-one 1,1-dioxide] | 35.5
4 | CSc1cccc(N2C(=O)N(Cc3cc(C)ccc3C)c3ccccc3S2(=O)=O)c1 [Example 51, 4-(2,5-dimethylbenzyl)-2-[3-(methylsulfanyl)phenyl]-2H-1,2,4-benzothiadiazin-3(4H)-one 1,1-dioxide] | 17.8
5 | COC(=O)c1ccc(OC)c(CN2C(=O)N(c3cccc(SC)c3)S(=O)(=O)c3ccccc32)c1 [Example 52, methyl 3-({2-[3-(methylsulfanyl)phenyl]-1,1-dioxido-3-oxo-2,3-dihydro-4H-1,2,4-benzothiadiazin-4-yl}methyl)-4-methoxybenzoate] | 2.63
6 | Cc1ccc(N2C(=O)N(Cc3ccccc3F)c3ccccc3S2(=O)=O)cc1Cl [Example 53, 4-(2-fluorobenzyl)-2-(3-chloro-4-methylphenyl)-2H-1,2,4-benzothiadiazin-3(4H)-one 1,1-dioxide] | 31.6
7 | Cc1ccc(N2C(=O)N(Cc3ccccc3C)c3ccccc3S2(=O)=O)cc1Cl [Example 54, 4-(2-methylbenzyl)-2-(3-chloro-4-methylphenyl)-2H-1,2,4-benzothiadiazin-3(4H)-one 1,1-dioxide] | 43.7
8 | Cc1cc(C)cc(N2C(=O)N(Cc3ccccc3Cl)c3ccccc3S2(=O)=O)c1 [Example 55, 4-(2-chlorobenzyl)-2-(3,5-dimethylphenyl)-2H-1,2,4-benzothiadiazin-3(4H)-one 1,1-dioxide] | 30.9
9 | Cc1cc(C)cc(N2C(=O)N(Cc3ccccc3F)c3ccccc3S2(=O)=O)c1 [Example 56, 4-(2-fluorobenzyl)-2-(3,5-dimethylphenyl)-2H-1,2,4-benzothiadiazin-3(4H)-one 1,1-dioxide] | 20.9
10 | Cc1ccc(N2C(=O)N(Cc3ccccc3F)c3ccccc3S2(=O)=O)cc1C [Example 57, 4-(2-fluorobenzyl)-2-(3,4-dimethylphenyl)-2H-1,2,4-benzothiadiazin-3(4H)-one 1,1-dioxide] | 23.4
11 | O=C1N(Cc2ccccc2Cl)c2ccccc2S(=O)(=O)N1Cc1ccccc1 [Example 58, 2-benzyl-4-(2-chlorobenzyl)-2H-1,2,4-benzothiadiazin-3(4H)-one 1,1-dioxide] | 933
12 | Cc1ccc(N2C(=O)N(Cc3ccccc3Cl)c3ccccc3S2(=O)=O)cc1C [Example 59, 4-(2-chlorobenzyl)-2-(3,4-dimethylphenyl)-2H-1,2,4-benzothiadiazin-3(4H)-one 1,1-dioxide] | 43.7
13 | COC(=O)c1ccc(OC)c(CN2C(=O)N(c3ccc(OC)c(OC)c3)S(=O)(=O)c3ccccc32)c1 [Example 60, methyl 3-{[2-(3,4-dimethoxyphenyl)-1,1-dioxido-3-oxo-2,3-dihydro-4H-1,2,4-benzothiadiazin-4-yl]methyl}-4-methoxybenzoate] | 40.7

Next, values leading:

Row | Ki [nM] | SMILES
14 | 269 | CSc1cccc(N2C(=O)N(CC3CCC3)c3ccccc3S2(=O)=O)c1 [Example 61, 4-(Cyclobutylmethyl)-2-[3-(methylsulfanyl)phenyl]-2H-1,2,4-benzothiadiazin-3(4H)-one 1,1-dioxide]
15 | 871 | CSc1cccc(N2C(=O)N(CC3CCCCC3)c3ccccc3S2(=O)=O)c1 [Example 62, 4-(Cyclohexylmethyl)-2-[3-(methylsulfanyl)phenyl]-2H-1,2,4-benzothiadiazin-3(4H)-one 1,1-dioxide]
16 | 832 | CSc1cccc(N2C(=O)N(C(C)c3ccccc3F)c3ccc(F)cc3S2(=O)=O)c1 (stereo not shown) [Example 63, 7-Fluoro-4-[1-(2-fluorophenyl)ethyl]-2-[3-(methylsulfanyl)phenyl]-2H-1,2,4-benzothiadiazin-3(4H)-one 1,1-dioxide]
17 | 661 | O=C1N(Cc2c(F)cccc2Cl)c2ccccc2S(=O)(=O)N1CC1CCCCC1 [Example 64, 4-(2-Chloro-6-fluorobenzyl)-2-(cyclohexylmethyl)-2H-1,2,4-benzothiadiazin-3(4H)-one 1,1-dioxide]
18 | 200 | N#Cc1ccc(CN2C(=O)N(Cc3c(F)cccc3F)c3ccccc3S2(=O)=O)cc1F [Example 65, 4-{[4-(2,6-Difluorobenzyl)-1,1-dioxido-3-oxo-3,4-dihydro-2H-1,2,4-benzothiadiazin-2-yl]methyl}-2-fluorobenzonitrile]
19 | 550 | COc1cccc(CCN2C(=O)N(Cc3c(F)cccc3F)c3ccccc3S2(=O)=O)c1 [Example 66, 4-(2,6-Difluorobenzyl)-2-[2-(3-methoxyphenyl)ethyl]-2H-1,2,4-benzothiadiazin-3(4H)-one 1,1-dioxide]
20 | 7.08 | COc1ccc(N2C(=O)N(Cc3ccccc3F)c3ccccc3S2(=O)=O)cc1OC [Example 67, 2-(3,4-Dimethoxyphenyl)-4-(2-fluorobenzyl)-2H-1,2,4-benzothiadiazin-3(4H)-one 1,1-dioxide]
21 | 0.708 | COc1ccc(N2C(=O)N(Cc3c(Cl)cccc3Cl)c3ccccc3S2(=O)=O)cc1OC [Example 68, 4-(2,6-Dichlorobenzyl)-2-(3,4-dimethoxyphenyl)-2H-1,2,4-benzothiadiazin-3(4H)-one 1,1-dioxide]
22 | 1.07 | COc1cc(OC)cc(N2C(=O)N(Cc3c(F)cccc3Cl)c3ccccc3S2(=O)=O)c1 [Example 69, 4-(2-Chloro-6-fluorobenzyl)-2-(3,5-dimethoxyphenyl)-2H-1,2,4-benzothiadiazin-3(4H)-one 1,1-dioxide]
23 | 2 | COc1cc(OC)cc(N2C(=O)N(Cc3c(Cl)cccc3Cl)c3ccccc3S2(=O)=O)c1 [Example 70, 4-(2,6-Dichlorobenzyl)-2-(3,5-dimethoxyphenyl)-2H-1,2,4-benzothiadiazin-3(4H)-one 1,1-dioxide]
24 | 7.08 | COc1ccc(N2C(=O)N(Cc3cccc(Cl)c3F)c3ccccc3S2(=O)=O)cc1OC [Example 71, 4-(3-Chloro-2-fluorobenzyl)-2-(3,4-dimethoxyphenyl)-2H-1,2,4-benzothiadiazin-3(4H)-one 1,1-dioxide]
25 | 10.5 | COc1ccc(N2C(=O)N(Cc3ccc(Cl)cc3F)c3ccccc3S2(=O)=O)cc1OC [Example 72, 4-(4-Chloro-2-fluorobenzyl)-2-(3,4-dimethoxyphenyl)-2H-1,2,4-benzothiadiazin-3(4H)-one 1,1-dioxide]
26 | 2.09 | O=C1N(Cc2c(F)cccc2Cl)c2ccccc2S(=O)(=O)N1c1cccc(SC(F)(F)F)c1 [Example 73, 4-(2-Chloro-6-fluorobenzyl)-2-{3-[(trifluoromethyl)sulfanyl]phenyl}-2H-1,2,4-benzothiadiazin-3(4H)-one 1,1-dioxide]
27 | 11.7 | CSc1cccc(N2C(=O)N(Cc3c(F)cccc3Cl)c3ccc(F)cc3S2(=O)=O)c1 [Example 74, 4-(2-Chloro-6-fluorobenzyl)-7-fluoro-2-[3-(methylsulfanyl)phenyl]-2H-1,2,4-benzothiadiazin-3(4H)-one 1,1-dioxide]
28 | 8.32 | O=C1N(Cc2c(F)cccc2F)c2ccccc2S(=O)(=O)N1c1cccc(SC(F)(F)F)c1 [Example 75, 4-(2,6-Difluorobenzyl)-2-{3-[(trifluoromethyl)sulfanyl]phenyl}-2H-1,2,4-benzothiadiazin-3(4H)-one 1,1-dioxide]
29 | 14.8 | CSc1cccc(N2C(=O)N(Cc3c(F)cccc3Cl)c3cc(F)ccc3S2(=O)=O)c1 [Example 76, 4-(2-Chloro-6-fluorobenzyl)-6-fluoro-2-[3-(methylsulfanyl)phenyl]-2H-1,2,4-benzothiadiazin-3(4H)-one 1,1-dioxide]
30 | 8.91 | COc1ccc(N2C(=O)N(Cc3c(C)cccc3C)c3ccccc3S2(=O)=O)cc1OC [Example 77, 4-(2,6-Dimethylbenzyl)-2-(3,4-methoxyphenyl)-2H-1,2,4-benzothiadiazin-3(4H)-one 1,1-dioxide]
31 | 4.07 | COc1cc(N2C(=O)N(Cc3c(F)cccc3Cl)c3ccccc3S2(=O)=O)cc(OC)c1OC [Example 78, 4-(2-Chloro-6-fluorobenzyl)-2-(3,4,5-trimethoxyphenyl)-2H-1,2,4-benzothiadiazin-3(4H)-one 1,1-dioxide]

From US10316028B2, “Orexin receptor antagonists” (Heptares Therapeutics Limited, priority 2012, dated 2019)
